Assay results taken from patent US20100144626A1, “Treatment of Multi-Drug Resistant Bacterial Infections” (priority 2006, published 2010).
In brackets after ≈: the same amount, converted by molar mass.

Legend:
[1] = in vivo, cited from earlier work
[2] = in vivo; cited from earlier work
[3] = test system: clinical MRSA and VISA strains; experiment: MICs for clinical MRSA and VISA strains; assay type: cell-based; details: Staphylococcus aureus; range over strains; read-out: MICs for the clinical MRSA and VISA strains tested
Method: In example experiments miconazole nitrate, was dissolved in methanol and econazole nitrate and clotrimazole were dissolved in DMSO and methanol respectively. Other solvents that may be used include caster oil, pyridine, DMSO and 0.9% saline. For IV administration agents may be solubilised in polyethoxylated caster oil, or cyclodextrins such as sulfobutylether7-βcyclodextrin or hydroxypropyl-β-cyclodextrin and lactic acid. Minimum inhibitory concentrations (MICs) of a range of clinical and control bacterial organisms were measured according to BSAC (British Society for Antimicrobial Chemotherapy) guidelines, described briefly as follows;
Stock solutions were prepared at concentrations of 1000 mg/L and 100 mg/L. The appropriate amounts of each stock solution were added to separate Petri dishes give the following final concentrations (after the addition of 20 mL molten agar): 128, 64, 32, 16, 8, 4, 2, 1, 0.5, 0.25, 0.12, 0.06, 0.03, 0.015 mg/L.
The test organisms were grown overnight in 5 mL IST broth. Using a dilution in 0.9% saline of 1:500 for Gram-negative organisms and 1:100 for Gram-positive organisms, the appropriate agar plates were inoculated using a multipoint inoculator. […]
The MIC is the minimum amount of an antibiotic at which there is no visible growth of bacteria. Tiny single colonies or faint hazes were not counted as growth.

[4] = test system: MRSA; details: cited from earlier work

SMILES: Clc1ccc(COC(Cn2ccnc2)c2ccc(Cl)cc2Cl)cc1 (centres unmarked) [Econazole]
- tolerability of single oral dose ([1]; po): tolerated
- number of metabolites [1]: more than 20

SMILES: Clc1ccccc1C(c1ccccc1)(c1ccccc1)n1ccnc1 [Clotrimazole, 1-[(2-chlorophenyl)diphenylmethyl]-1H-imidazole]
- concentration in the stratum corneum [2]: 100 mcg/cm3
- concentration in the stratum reticulare [2]: 0.5-1 mcg/cm3
- concentration in the subcutis [2]: 0.1 mcg/cm3

SMILES: Clc1ccc(COC(Cn2ccnc2)c2ccc(Cl)cc2Cl)c(Cl)c1 (centres unmarked) [Miconazole, 1-[2-(2,4-dichlorophenyl)-2-[(2,4-dichlorophenyl)methoxy]ethyl]-1H-imidazole]
- MIC [3]: 0.25 to 2 µg/mL (≈ 0.601 to 4.81 µM)
- anti-MRSA activity in presence of lipophilic a-tocopherol (vitamin E) ([4]; Lee et al. 1999): completely suppressed
- minimum inhibitory concentration against MRSA ([4]; Lee et al., J. Microbiol. Biotechnol. 9 (1999), estimated): 0.78 µg/mL (≈ 1.87 µM)
